From PMC8347595, “N-Skatyltryptamines—Dual 5-HT6R/D2R Ligands with Antipsychotic and Procognitive Potential” (Molecules, 2021)
pEC50: −log10 of the molar value.

Experiments:
[1] = biological target: T1, Human Serotonin 5-HT6R (Homo sapiens, UniProt P50406); test: 5-HT6R functional assay, agonistic mode (cAMP, 1321N1 cells); format: cell-based
T1 construct: host or cells: 1321N1 (frozen recombinant cells)
Experimental: (§1) The properties of compounds to inhibit cAMP production induced by a 5-HT6R agonist 5-CT (1000 nM) was evaluated. Compounds were tested in triplicate at eight concentrations (10^−11–10^−4 M). The level of cAMP was measured using frozen recombinant 1321N1 cells expressing the Human Serotonin 5-HT6R (PerkinElmer). Total cAMP was measured using the LANCE cAMP Detection Kit (PerkinElmer), according to the manufacturer’s instructions. For quantification of cAMP levels, 2000 cells/well ([…]) were incubated with a mixture of compounds ([…]) for 30 min at room temperature in a 384-well white opaque microtiter plate. After incubation, the reaction was stopped and cells were lysed by the addition of […] of working solution ([…] ULight-anti-cAMP) for 1 h at room temperature. Time-resolved fluorescence resonance energy transfer (TR-FRET) was detected by an Infinite M1000 Pro (Tecan) using instrument settings from the LANCE cAMP Detection Kit manual. […] The agonistic properties of compounds were determined with an analogous procedure, but without stimulation with 5-CT [10, 36].

[2] = biological target: T1, Human Serotonin 5-HT6R; test: 5-HT6R functional assay, antagonistic mode (cAMP induced by 5-CT, 1321N1 cells); format: cell-based
Experimental: as §1

T1 sequence (P50406 whole entry): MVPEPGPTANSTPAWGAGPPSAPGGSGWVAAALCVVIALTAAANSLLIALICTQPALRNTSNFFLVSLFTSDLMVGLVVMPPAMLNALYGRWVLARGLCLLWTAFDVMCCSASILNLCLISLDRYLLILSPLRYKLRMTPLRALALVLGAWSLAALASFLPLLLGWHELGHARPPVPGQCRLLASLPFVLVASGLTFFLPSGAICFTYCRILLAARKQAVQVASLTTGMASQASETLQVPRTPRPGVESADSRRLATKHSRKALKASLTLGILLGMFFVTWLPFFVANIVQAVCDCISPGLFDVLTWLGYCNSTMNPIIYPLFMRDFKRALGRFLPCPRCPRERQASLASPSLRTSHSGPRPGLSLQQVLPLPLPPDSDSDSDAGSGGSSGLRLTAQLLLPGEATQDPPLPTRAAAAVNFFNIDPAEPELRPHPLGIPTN

| Structure (SMILES) | 5-HT6R function in words (agonism) [1] | pEC50 [1] | 5-HT6R function in words (antagonism) [2] | Kb ([2]; antagonistic mode, 5-CT 1000 nM, read-out: 5-HT6 Kb) [nM] |
| --- | --- | --- | --- | --- |
| Brc1cccc2c(CNCCc3c[nH]c4ccccc34)c[nH]c12 [Compound 18] | agonist | 7.11 | – | – |
| Brc1ccc2c(CNCCc3c[nH]c4ccccc34)c[nH]c2c1 [Compound 15] | – | – | antagonist | 131 |
